Test results: patent US10440953B2, “Control of pests in maize by ginkgolides and bilobalide” (priority 2015, dated 2019)
Like-named read-outs stand apart in the source and are kept apart here.

Experiments:
Assay type in all cases: in vivo
Nezara viridula [1] = assay: Foliar spray of maize plants, mortality of Nezara viridula (Example-1); settings: for mortality at 100 ppm: Nezara viridula, foliar, 72 h
Procedure: Zea mays plants were grown to growth stage BBCH 12. The maize plants were then sprayed with 300 l/ha of aqueous compositions comprising either no component of the ginkgo tree, 300 ppm of ginkgolide A, or 100 ppm of bilobalide. The plants were then allowed to dry and subsequently infested with five insects (either adult, or 4th instar nymphs) of Nezara viridula. Insects were contained on the plant using mesh organza bags. Three replicates on different plants were made for each measurement. Three days after infestation, the number of live and dead insects was determined. The mean mortality values were gathered in Table D.

Nezara viridula [2] = assay: Soil drench on corn, mortality of Nezara viridula (Example-2); settings: soil drench 2.5 mg active ingredient per plant, infested 3DAT, measured 7DAT
Procedure: Ginkgolide A and Bilobalide were each dissolved in a solution of 50 wt % of acetone in water and applied to the soil of corn four days after planting at a rate of 2.5 mg of the active ingredient per plant. Prior to infestation the soil was covered with parafilm to prevent insect exposure to treated soil. Each plant was infested 3DAT with four 4th instar Nezara viridula insects. Insects were contained on the plant using organza fabric bags. Four replicates on different plants were made for each measurement. The mortality of the insects was measured 7DAT. The mean mortality values were gathered in Table E.

Nezara viridula [3] = assay: Corn seed treatment, damage protection against Nezara viridula (Example-3); settings: 4th instar N. viridula, assessed 10DAT
Procedure: Ginkgolide A was dissolved in DMSO and applied to corn seeds at rates of 1.0 and 0.5 mg of Ginkgolide A per plant. One seed was planted per pot in a 1:1 mixture of North Carolina loamy sand:sand. Prior to infestation, soil was covered with parafilm to prevent insect exposure to treated soil. After emergence of the plants, each pot was infested with four 4th instar Nezara viridula insects. Insects were contained on the pots using organza fabric bags. Four replicates on different plants were made for each measurement. The mean damage protection of the corn plants was assessed 10DAT in comparison with untreated controls. For plant height, root mass, and root length, evaluation of the damage protection of the plants was carried out for each treatment as the increase from the infested solvent blank (SB) relative to the increase of the uninfested control from the infested solvent blank: (Treatment−Infested SB)/Uninfested SB−Infested SB)×100%. The results of the mean damage protection values were gathered in Table F.

Euschistus heros [4] = assay: Spray of Agrisure Viptera and Roundoup Ready 2 maize seedlings with ginkgolide A, control of Euschistus heros (Example-5); settings: for Relative Efficacy 3DAI: Abbott's formula; for No of alive insects 3DAI: ten adult E. heros per plant
Procedure: (§1) Relative efficacy (E) values were calculated according to Abbot's formula E=[(C−G)/C]×100, wherein C is the percentage of alive insects in untreated controls, and G is the percentage of alive insects in plants treated with components of the ginkgo tree.
(§2) Agrisure™ Viptera and Roundoup Ready™ 2 Zea mays seedlings were sprayed with 1 ml of compositions comprising either no component of the ginkgo tree, or bilobalide at a concentration of 50, 100, or 150 ppm. Plants were allowed to dry and subsequently infested with ten adult insects of Euschistus heros. Three replicate measurement on different plants were made for each measurement. Six days after infestation (6DAI) number of live and dead insects was determined. The mean number of alive insects, as well as the relative efficacy values (E) according to Abbott's formula were gathered in Table G, wherein the number of alive insects in untreated controls (C) was the value of the same plant without the application of bilobalide.
Three days after infestation (3DAI) number of live and dead insects was determined. The mean number of alive insects, as well as the relative efficacy values (E) according to Abbott's formula were gathered in Table H, wherein the number of alive insects in untreated controls (C) was the value of the same plant without the application of ginkgolide A.

Euschistus heros [5] = assay: Spray of Agrisure Viptera and Roundoup Ready 2 maize seedlings with bilobalide, control of Euschistus heros (Example-4); settings: for Relative Efficacy 6DAI: Abbott's formula; for No of alive insects 6DAI: ten adult E. heros per plant
Procedure: as §1, §2

[6] = Agrisure Viptera maize, 10 ppm ginkgolide A
[7] = Agrisure Viptera maize, 250 ppm ginkgolide A
[8] = Roundoup Ready 2 maize, 10 ppm ginkgolide A
[9] = Roundoup Ready 2 maize, 250 ppm ginkgolide A
[10] = Agrisure Viptera maize, 50 ppm bilobalide
[11] = Agrisure Viptera maize, 100 ppm bilobalide
[12] = Agrisure Viptera maize, 150 ppm bilobalide
[13] = Roundoup Ready 2 maize, 50 ppm bilobalide
[14] = Roundoup Ready 2 maize, 100 ppm bilobalide
[15] = Roundoup Ready 2 maize, 150 ppm bilobalide

C[C@@H]1C(=O)O[C@H]2C[C@@]34[C@H]5C[C@@H](C(C)(C)C)[C@]36[C@@H](OC(=O)[C@@H]6O)O[C@@]4(C(=O)O5)[C@]21O [Ginkgolide A]
Mortality of 4th instar nymphs (Nezara viridula [1]; 300 ppm ginkgolide A, 300 l/ha spray on Zea mays BBCH 12, 4th instar N. viridula, three days after infestation): 61.5% | Mortality of Adults (Nezara viridula [1]; 300 ppm ginkgolide A, 300 l/ha spray on Zea mays BBCH 12, adult N. viridula, three days after infestation): 20.0% | Mortality of 4th instar nymphs relative to untreated control (Nezara viridula [2]): 100% | Mean damage protection (Nezara viridula [3]; seed treatment 0.5 mg/seed): 64% | Mean damage protection (Nezara viridula [3]; seed treatment 1.0 mg/seed): 77% | Relative Efficacy 3DAI (Euschistus heros [4]; [6]): 38% | No of alive insects 3DAI (Euschistus heros [4]; [6]): 5.3 | Relative Efficacy 3DAI (Euschistus heros [4]; [7]): 35% | No of alive insects 3DAI (Euschistus heros [4]; [7]): 5.7 | Relative Efficacy 3DAI (Euschistus heros [4]; [8]): 14% | No of alive insects 3DAI (Euschistus heros [4]; [8]): 8.3 | Relative Efficacy 3DAI (Euschistus heros [4]; [9]): 21% | No of alive insects 3DAI (Euschistus heros [4]; [9]): 7.7

CC(C)(C)[C@]1(O)C[C@@H]2OC(=O)C[C@@]23C(=O)O[C@@H]2OC(=O)[C@H](O)[C@]213 [Bilobalide, (3aS,5aR,8aS,9R,10aR)-9-tert-butyl-8,9-dihydroxydihydro-9H-furo[2,3-b]furo[3′,2′;2,3]cyclopenta[1,2-c]furan-2,4,7(3H,8H)-trione]
mortality at 100 ppm (Nezara viridula [1]; read-out: Mortality of 4th instar nymphs): 84.6% | mortality at 100 ppm (Nezara viridula [1]; read-out: Mortality of Adults): 33.3% | Mortality of 4th instar nymphs relative to untreated control (Nezara viridula [2]): 85% | Relative Efficacy 6DAI (Euschistus heros [5]; [10]): 92% | No of alive insects 6DAI (Euschistus heros [5]; [10]): 0.7 | Relative Efficacy 6DAI (Euschistus heros [5]; [11]): 96% | No of alive insects 6DAI (Euschistus heros [5]; [11]): 0.3 | Relative Efficacy 6DAI (Euschistus heros [5]; [12]): 100% | No of alive insects 6DAI (Euschistus heros [5]; [12]): 0.0 | Relative Efficacy 6DAI (Euschistus heros [5]; [13]): 83% | No of alive insects 6DAI (Euschistus heros [5]; [13]): 1.0 | Relative Efficacy 6DAI (Euschistus heros [5]; [14]): 89% | No of alive insects 6DAI (Euschistus heros [5]; [14]): 0.7 | Relative Efficacy 6DAI (Euschistus heros [5]; [15]): 94% | No of alive insects 6DAI (Euschistus heros [5]; [15]): 0.3
